According to publication PMC8401933 (Molecules, 2021):

Tests used:
Test in all cases: KINOMEscan binding
SRPK3 = molecular target: T1, SRPK3 (Homo sapiens, UniProt Q9UPE1); conditions: read-out: Percent Control
T1 construct: purchased Eurofins DiscoverX KINOMEscan

[1] = molecular target: T2, RSK1(Kin.Dom.1-N-terminal) (Homo sapiens, UniProt Q15418); conditions: read-out: Percent Control
T2 construct: RSK1(Kin.Dom.1-N-terminal); purchased Eurofins DiscoverX KINOMEscan

LOK = molecular target: T3, LOK (Homo sapiens, UniProt O94804); conditions: read-out: Percent Control
T3 construct: purchased Eurofins DiscoverX KINOMEscan

SNRK = molecular target: T4, SNRK (Homo sapiens, UniProt Q9NRH2); conditions: read-out: Percent Control
T4 construct: purchased Eurofins DiscoverX KINOMEscan

AURKC = molecular target: T5, AURKC (Homo sapiens, UniProt Q9UQB9); conditions: read-out: Percent Control
T5 construct: purchased Eurofins DiscoverX KINOMEscan

FLT3(ITD,D835V) = system: FLT3(ITD,D835V); parameters: species or system human; conditions: 10 μM
DAPK3 = molecular target: T6, DAPK3 (Homo sapiens, UniProt O43293); conditions: read-out: Percent Control
T6 construct: purchased Eurofins DiscoverX KINOMEscan

CLK2 = molecular target: T7, CLK2 (Homo sapiens, UniProt P49760); conditions: read-out: Percent Control
T7 construct: purchased Eurofins DiscoverX KINOMEscan
T7 sequence (P49760 whole entry): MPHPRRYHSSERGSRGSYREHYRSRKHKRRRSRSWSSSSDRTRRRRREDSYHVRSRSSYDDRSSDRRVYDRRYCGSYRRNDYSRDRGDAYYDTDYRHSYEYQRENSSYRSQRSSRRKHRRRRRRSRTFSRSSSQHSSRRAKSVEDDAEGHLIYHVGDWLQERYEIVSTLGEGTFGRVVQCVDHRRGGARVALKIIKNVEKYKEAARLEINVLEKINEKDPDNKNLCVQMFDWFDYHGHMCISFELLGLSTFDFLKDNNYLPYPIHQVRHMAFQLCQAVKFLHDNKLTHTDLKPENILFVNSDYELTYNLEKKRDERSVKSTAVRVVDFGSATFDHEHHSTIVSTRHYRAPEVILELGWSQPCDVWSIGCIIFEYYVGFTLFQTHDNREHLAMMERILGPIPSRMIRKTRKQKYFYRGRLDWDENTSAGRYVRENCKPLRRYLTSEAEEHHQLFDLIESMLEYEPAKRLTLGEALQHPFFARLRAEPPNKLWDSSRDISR

CDKL1 = molecular target: T8, CDKL1 (Homo sapiens, UniProt Q00532); conditions: read-out: Percent Control
T8 construct: purchased Eurofins DiscoverX KINOMEscan

MERTK = molecular target: T9, MERTK (Homo sapiens, UniProt Q12866); conditions: read-out: Percent Control
T9 construct: purchased Eurofins DiscoverX KINOMEscan

PIK3C2G = molecular target: T10, PIK3C2G (Homo sapiens, UniProt O75747); conditions: read-out: Percent Control
T10 construct: purchased Eurofins DiscoverX KINOMEscan

SLK = molecular target: T11, SLK (Homo sapiens, UniProt Q9H2G2); conditions: read-out: Percent Control
T11 construct: purchased Eurofins DiscoverX KINOMEscan

CSNK1E = molecular target: T12, CSNK1E (Homo sapiens, UniProt P49674); conditions: read-out: Percent Control
T12 construct: purchased Eurofins DiscoverX KINOMEscan
T12 sequence (P49674 whole entry): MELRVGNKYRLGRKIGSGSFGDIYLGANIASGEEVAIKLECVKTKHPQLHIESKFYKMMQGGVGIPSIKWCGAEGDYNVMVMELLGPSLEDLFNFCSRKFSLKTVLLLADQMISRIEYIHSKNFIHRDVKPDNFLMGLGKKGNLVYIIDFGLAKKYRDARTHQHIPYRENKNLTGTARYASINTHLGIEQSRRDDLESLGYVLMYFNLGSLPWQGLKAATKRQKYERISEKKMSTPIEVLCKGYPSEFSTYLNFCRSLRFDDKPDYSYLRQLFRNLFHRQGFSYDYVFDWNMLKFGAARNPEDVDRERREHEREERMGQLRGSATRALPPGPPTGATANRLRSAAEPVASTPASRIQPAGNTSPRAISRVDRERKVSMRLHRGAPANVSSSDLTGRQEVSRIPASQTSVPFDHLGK

DYRK1B = molecular target: T13, DYRK1B (Homo sapiens, UniProt Q9Y463); conditions: read-out: Percent Control
T13 construct: purchased Eurofins DiscoverX KINOMEscan

ALK(C1156Y) = molecular target: T14, ALK(C1156Y) (Homo sapiens, UniProt Q9UM73, C1156Y); conditions: read-out: Percent Control
T14 construct: purchased Eurofins DiscoverX KINOMEscan

PFCDPK1(P.falciparum) = molecular target: T15, PFCDPK1(P.falciparum) (Plasmodium falciparum, UniProt P62344); conditions: read-out: Percent Control
T15 construct: purchased Eurofins DiscoverX KINOMEscan

STK33 = molecular target: T16, STK33 (Homo sapiens, UniProt Q9BYT3); conditions: read-out: Percent Control
T16 construct: purchased Eurofins DiscoverX KINOMEscan

PIP5K2C = molecular target: T17, PIP5K2C (Homo sapiens, UniProt Q8TBX8); conditions: read-out: Percent Control
T17 construct: purchased Eurofins DiscoverX KINOMEscan

YES = molecular target: T18, YES (Homo sapiens, UniProt P07947); conditions: read-out: Percent Control
T18 construct: purchased Eurofins DiscoverX KINOMEscan

ABL1-phosphorylated = molecular target: T19, ABL1-phosphorylated (Homo sapiens, UniProt P00519); conditions: read-out: Percent Control
T19 construct: purchased Eurofins DiscoverX KINOMEscan

CIT = molecular target: T20, CIT (Homo sapiens, UniProt O14578); conditions: read-out: Percent Control
T20 construct: purchased Eurofins DiscoverX KINOMEscan
T20 sequence (O14578 whole entry): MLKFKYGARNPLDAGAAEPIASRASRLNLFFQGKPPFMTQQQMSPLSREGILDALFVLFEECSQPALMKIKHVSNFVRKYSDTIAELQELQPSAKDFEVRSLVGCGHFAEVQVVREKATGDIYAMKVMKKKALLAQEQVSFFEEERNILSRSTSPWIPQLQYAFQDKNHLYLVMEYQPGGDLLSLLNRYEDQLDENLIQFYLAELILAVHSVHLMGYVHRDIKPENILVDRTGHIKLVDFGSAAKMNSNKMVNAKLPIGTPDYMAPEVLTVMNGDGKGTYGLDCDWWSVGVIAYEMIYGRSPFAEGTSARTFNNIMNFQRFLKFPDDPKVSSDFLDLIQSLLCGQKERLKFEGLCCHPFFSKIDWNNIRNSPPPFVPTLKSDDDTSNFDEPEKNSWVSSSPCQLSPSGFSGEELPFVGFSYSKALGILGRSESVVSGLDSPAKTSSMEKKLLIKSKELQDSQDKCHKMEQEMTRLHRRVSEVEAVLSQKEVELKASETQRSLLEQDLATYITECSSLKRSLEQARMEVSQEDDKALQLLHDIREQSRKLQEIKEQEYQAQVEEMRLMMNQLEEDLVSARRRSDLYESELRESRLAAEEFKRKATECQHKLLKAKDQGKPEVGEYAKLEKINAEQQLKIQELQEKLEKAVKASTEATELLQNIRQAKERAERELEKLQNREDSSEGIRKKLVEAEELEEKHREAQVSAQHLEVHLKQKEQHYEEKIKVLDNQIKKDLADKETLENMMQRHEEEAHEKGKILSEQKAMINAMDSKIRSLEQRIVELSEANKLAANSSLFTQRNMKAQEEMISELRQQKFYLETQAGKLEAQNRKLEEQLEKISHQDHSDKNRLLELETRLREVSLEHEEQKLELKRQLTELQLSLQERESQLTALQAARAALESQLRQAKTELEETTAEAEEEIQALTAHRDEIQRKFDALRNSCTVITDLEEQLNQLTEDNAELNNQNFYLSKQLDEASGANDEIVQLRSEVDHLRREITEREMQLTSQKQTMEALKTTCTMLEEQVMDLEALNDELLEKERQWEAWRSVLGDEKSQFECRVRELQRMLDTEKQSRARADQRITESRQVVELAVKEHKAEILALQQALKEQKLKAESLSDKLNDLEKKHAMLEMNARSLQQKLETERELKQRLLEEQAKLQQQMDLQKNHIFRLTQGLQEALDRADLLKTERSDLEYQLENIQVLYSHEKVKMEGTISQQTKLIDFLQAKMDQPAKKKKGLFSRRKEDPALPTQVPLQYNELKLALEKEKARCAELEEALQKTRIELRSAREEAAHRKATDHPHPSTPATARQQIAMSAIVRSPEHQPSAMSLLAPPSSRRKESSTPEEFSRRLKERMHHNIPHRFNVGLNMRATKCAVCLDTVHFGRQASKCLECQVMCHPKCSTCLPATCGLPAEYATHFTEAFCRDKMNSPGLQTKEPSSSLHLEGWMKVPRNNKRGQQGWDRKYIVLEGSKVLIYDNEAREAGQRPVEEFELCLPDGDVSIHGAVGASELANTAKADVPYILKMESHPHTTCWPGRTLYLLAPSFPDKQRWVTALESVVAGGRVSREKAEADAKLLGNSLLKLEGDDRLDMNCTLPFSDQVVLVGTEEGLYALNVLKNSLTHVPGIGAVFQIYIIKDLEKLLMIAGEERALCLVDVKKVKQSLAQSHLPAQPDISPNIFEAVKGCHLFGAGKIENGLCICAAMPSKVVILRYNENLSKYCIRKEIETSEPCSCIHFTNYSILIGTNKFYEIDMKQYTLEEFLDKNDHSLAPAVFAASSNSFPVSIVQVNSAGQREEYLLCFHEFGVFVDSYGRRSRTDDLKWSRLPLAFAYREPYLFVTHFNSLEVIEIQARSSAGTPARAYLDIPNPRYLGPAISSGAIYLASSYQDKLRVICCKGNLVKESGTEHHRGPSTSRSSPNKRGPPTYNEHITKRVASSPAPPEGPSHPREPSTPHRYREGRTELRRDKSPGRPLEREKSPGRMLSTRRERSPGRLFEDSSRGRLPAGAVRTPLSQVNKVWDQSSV

ACVRL1 = molecular target: T21, ACVRL1 (Homo sapiens, UniProt P37023); conditions: read-out: Percent Control
T21 construct: purchased Eurofins DiscoverX KINOMEscan

TXK = molecular target: T22, TXK (Homo sapiens, UniProt P42681); conditions: read-out: Percent Control
T22 construct: purchased Eurofins DiscoverX KINOMEscan

VEGFR2 = molecular target: T23, VEGFR2 (Homo sapiens, UniProt P35968); conditions: read-out: Percent Control
T23 construct: purchased Eurofins DiscoverX KINOMEscan

PIK3CA = molecular target: T24, PIK3CA (Homo sapiens, UniProt P42336); conditions: read-out: Percent Control
T24 construct: purchased Eurofins DiscoverX KINOMEscan

ADCK3 = molecular target: T25, ADCK3 (Homo sapiens, UniProt Q8NI60); conditions: read-out: Percent Control
T25 construct: purchased Eurofins DiscoverX KINOMEscan
T25 sequence (Q8NI60 163-647): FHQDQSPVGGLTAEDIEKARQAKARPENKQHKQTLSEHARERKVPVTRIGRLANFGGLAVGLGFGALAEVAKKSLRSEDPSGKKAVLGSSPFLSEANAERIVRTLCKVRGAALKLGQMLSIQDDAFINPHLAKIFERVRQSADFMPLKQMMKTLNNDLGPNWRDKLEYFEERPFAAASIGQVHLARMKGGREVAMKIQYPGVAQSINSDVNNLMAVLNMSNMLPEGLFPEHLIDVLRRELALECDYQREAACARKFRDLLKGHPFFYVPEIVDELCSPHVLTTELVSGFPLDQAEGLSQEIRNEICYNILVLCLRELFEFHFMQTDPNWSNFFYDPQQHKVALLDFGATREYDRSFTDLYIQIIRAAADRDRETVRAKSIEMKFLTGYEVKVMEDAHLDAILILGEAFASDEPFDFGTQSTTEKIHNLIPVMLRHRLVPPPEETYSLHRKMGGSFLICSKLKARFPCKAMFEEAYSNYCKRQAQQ

ERBB2 = molecular target: T26, ERBB2 (Homo sapiens, UniProt P04626); conditions: read-out: Percent Control
T26 construct: purchased Eurofins DiscoverX KINOMEscan

FGR = molecular target: T27, FGR (Homo sapiens, UniProt P09769); conditions: read-out: Percent Control
T27 construct: purchased Eurofins DiscoverX KINOMEscan

MST1 = molecular target: T28, MST1 (Homo sapiens, UniProt Q13043); conditions: read-out: Percent Control
T28 construct: purchased Eurofins DiscoverX KINOMEscan

NEK2 = molecular target: T29, NEK2 (Homo sapiens, UniProt P51955); conditions: read-out: Percent Control
T29 construct: purchased Eurofins DiscoverX KINOMEscan

STK35 = molecular target: T30, STK35 (Homo sapiens, UniProt Q8TDR2); conditions: read-out: Percent Control
T30 construct: purchased Eurofins DiscoverX KINOMEscan

[2] = molecular target: T31, ABL1(Q252H)-nonphosphorylated (Homo sapiens, UniProt P00519, Q252H); conditions: read-out: Percent Control
T31 construct: purchased Eurofins DiscoverX KINOMEscan

MEK2 = molecular target: T32, MEK2 (Homo sapiens, UniProt P36507); conditions: read-out: Percent Control
T32 construct: purchased Eurofins DiscoverX KINOMEscan

PRKCE = molecular target: T33, PRKCE (Homo sapiens, UniProt Q02156); conditions: read-out: Percent Control
T33 construct: purchased Eurofins DiscoverX KINOMEscan

PIK3CB = molecular target: T34, PIK3CB (Homo sapiens, UniProt P42338); conditions: read-out: Percent Control
T34 construct: purchased Eurofins DiscoverX KINOMEscan

ULK3 = molecular target: T35, ULK3 (Homo sapiens, UniProt Q6PHR2); conditions: read-out: Percent Control
T35 construct: purchased Eurofins DiscoverX KINOMEscan

[3] = molecular target: T36, ABL1(T315I)-phosphorylated (Homo sapiens, UniProt P00519, T315I); conditions: read-out: Percent Control
T36 construct: purchased Eurofins DiscoverX KINOMEscan

MAP3K2 = molecular target: T37, MAP3K2 (Homo sapiens, UniProt Q9Y2U5); conditions: read-out: Percent Control
T37 construct: purchased Eurofins DiscoverX KINOMEscan

IRAK3 = molecular target: T38, IRAK3 (Homo sapiens, UniProt Q9Y616); conditions: read-out: Percent Control
T38 construct: purchased Eurofins DiscoverX KINOMEscan

NEK10 = molecular target: T39, NEK10 (Homo sapiens, UniProt Q6ZWH5); conditions: read-out: Percent Control
T39 construct: purchased Eurofins DiscoverX KINOMEscan
T39 sequence (Q6ZWH5 whole entry): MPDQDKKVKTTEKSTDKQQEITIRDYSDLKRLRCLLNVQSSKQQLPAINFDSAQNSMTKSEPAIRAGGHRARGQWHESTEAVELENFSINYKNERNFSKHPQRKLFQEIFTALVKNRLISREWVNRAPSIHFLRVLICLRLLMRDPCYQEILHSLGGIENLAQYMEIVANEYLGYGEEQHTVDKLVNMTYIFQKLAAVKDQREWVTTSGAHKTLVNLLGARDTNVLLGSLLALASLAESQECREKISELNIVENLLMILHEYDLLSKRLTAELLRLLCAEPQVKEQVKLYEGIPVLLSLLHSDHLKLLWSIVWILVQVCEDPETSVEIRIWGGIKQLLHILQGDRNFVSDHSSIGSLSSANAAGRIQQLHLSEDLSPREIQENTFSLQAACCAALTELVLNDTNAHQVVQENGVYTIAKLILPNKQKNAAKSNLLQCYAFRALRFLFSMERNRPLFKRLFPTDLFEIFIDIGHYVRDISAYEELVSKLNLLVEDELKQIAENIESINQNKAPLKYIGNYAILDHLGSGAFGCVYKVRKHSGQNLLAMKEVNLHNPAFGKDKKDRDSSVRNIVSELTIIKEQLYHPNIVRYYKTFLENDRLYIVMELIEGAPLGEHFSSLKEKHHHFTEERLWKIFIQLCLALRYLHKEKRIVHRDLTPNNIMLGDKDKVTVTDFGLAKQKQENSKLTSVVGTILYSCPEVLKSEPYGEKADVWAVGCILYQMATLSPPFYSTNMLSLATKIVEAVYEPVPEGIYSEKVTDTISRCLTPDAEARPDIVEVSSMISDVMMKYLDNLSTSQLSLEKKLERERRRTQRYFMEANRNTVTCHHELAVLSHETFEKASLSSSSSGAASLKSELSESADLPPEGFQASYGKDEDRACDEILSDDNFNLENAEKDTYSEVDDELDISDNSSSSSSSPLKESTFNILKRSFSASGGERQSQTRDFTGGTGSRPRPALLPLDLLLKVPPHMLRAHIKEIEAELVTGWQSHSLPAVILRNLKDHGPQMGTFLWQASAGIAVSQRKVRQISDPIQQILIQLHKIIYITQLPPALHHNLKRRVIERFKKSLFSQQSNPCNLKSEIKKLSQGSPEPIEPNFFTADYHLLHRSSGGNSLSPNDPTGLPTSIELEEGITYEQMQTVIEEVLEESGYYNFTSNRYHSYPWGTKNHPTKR

LYN = molecular target: T40, LYN (Homo sapiens, UniProt P07948); conditions: read-out: Percent Control
T40 construct: purchased Eurofins DiscoverX KINOMEscan

MAPKAPK2 = molecular target: T41, MAPKAPK2 (Homo sapiens, UniProt P49137); conditions: read-out: Percent Control
T41 construct: purchased Eurofins DiscoverX KINOMEscan

PFPK5(P.falciparum) = molecular target: T42, PFPK5(P.falciparum) (Plasmodium falciparum, UniProt P61075); conditions: read-out: Percent Control
T42 construct: purchased Eurofins DiscoverX KINOMEscan

RIPK4 = molecular target: T43, RIPK4 (Homo sapiens, UniProt P57078); conditions: read-out: Percent Control
T43 construct: purchased Eurofins DiscoverX KINOMEscan

T2 sequence (Q15418 1-391 limits assumed): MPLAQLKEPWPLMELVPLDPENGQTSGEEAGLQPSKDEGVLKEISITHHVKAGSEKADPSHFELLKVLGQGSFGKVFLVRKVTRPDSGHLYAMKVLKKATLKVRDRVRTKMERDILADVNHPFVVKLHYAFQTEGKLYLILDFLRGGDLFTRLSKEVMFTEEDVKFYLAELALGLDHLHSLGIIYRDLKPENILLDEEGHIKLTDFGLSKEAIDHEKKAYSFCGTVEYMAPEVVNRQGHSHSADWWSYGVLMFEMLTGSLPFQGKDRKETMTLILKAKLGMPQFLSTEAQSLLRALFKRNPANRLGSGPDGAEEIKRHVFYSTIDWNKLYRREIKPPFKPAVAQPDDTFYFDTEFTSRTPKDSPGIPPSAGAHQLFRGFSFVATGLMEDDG

Molecule `CC(C)NC(=O)COc1cccc(-c2nc(Nc3ccc4[nH]ncc4c3)c3ccccc3n2)c1` [KD025, 2-(3-(4-((1H-indazol-5-yl)amino)quinazolin-2-yl)phenoxy)-N-isopropylacetamide] has a remaining binding at 10 µM (SRPK3) of 5.7%, a remaining binding at 10 µM [1] of 7.8% and a remaining binding at 10 µM (LOK) of 9.8%. The remaining binding at 10 µM (SNRK) was 14%, the remaining binding at 10 µM (AURKC) was 18% and the “Percent Control” value (FLT3(ITD,D835V)) was 28%. The remaining binding at 10 µM (DAPK3) was 35%, the remaining binding at 10 µM (CLK2) was 51% and the remaining binding at 10 µM (CDKL1) was 56%. It also gave a remaining binding at 10 µM (MERTK) of 58%, a remaining binding at 10 µM (PIK3C2G) of 58% and a remaining binding at 10 µM (SLK) of 59%. It also gave a remaining binding at 10 µM (CSNK1E) of 61%, a remaining binding at 10 µM (DYRK1B) of 64% and a remaining binding at 10 µM (ALK(C1156Y)) of 65%. For the same molecule, the remaining binding at 10 µM (PFCDPK1(P.falciparum)) was 66%, the remaining binding at 10 µM (STK33) was 67% and the remaining binding at 10 µM (PIP5K2C) was 71%. It also gave a remaining binding at 10 µM (YES) of 71%, a remaining binding at 10 µM (ABL1-phosphorylated) of 73% and a remaining binding at 10 µM (CIT) of 75%. For the same molecule, the remaining binding at 10 µM (ACVRL1) was 76%, the remaining binding at 10 µM (TXK) was 76% and the remaining binding at 10 µM (VEGFR2) was 76%. It also gave a remaining binding at 10 µM (PIK3CA) of 77%, a remaining binding at 10 µM (ADCK3) of 78% and a remaining binding at 10 µM (ERBB2) of 81%. It also gave a remaining binding at 10 µM (FGR) of 82%, a remaining binding at 10 µM (MST1) of 82% and a remaining binding at 10 µM (NEK2) of 83%. The remaining binding at 10 µM (STK35) was 84%, the remaining binding at 10 µM [2] was 85% and the remaining binding at 10 µM (MEK2) was 86%. For the same molecule, the remaining binding at 10 µM (PRKCE) was 88%, the remaining binding at 10 µM (PIK3CB) was 89% and the remaining binding at 10 µM (ULK3) was 90%. For the same molecule, the remaining binding at 10 µM [3] was 93%, the remaining binding at 10 µM (MAP3K2) was 95% and the remaining binding at 10 µM (IRAK3) was 96%. For the same molecule, the remaining binding at 10 µM (NEK10) was 96%, the remaining binding at 10 µM (LYN) was 100% and the remaining binding at 10 µM (MAPKAPK2) was 100%. It also gave a remaining binding at 10 µM (PFPK5(P.falciparum)) of 100% and a remaining binding at 10 µM (RIPK4) of 100%.
